PMC6321136, “Combined In Vitro Studies and in Silico Target Fishing for the Evaluation of the Biological Activities of Diphylleia cymosa and Podophyllum hexandrum” (Molecules, 2018)
Read-outs that look alike come from different tables or passages of the source.

Experiments:
[1] = DPPH radical scavenger activity
Protocol: The evaluation of the antioxidant activity using the 2,2-diphenyl-1-picrylhydrazyl radical (DPPH) was performed according to the method proposed by Mensor et al., with adaptations. The samples were dissolved in MeOH at concentrations ranging from 1.0 to 200 μg/mL. A portion of 250 μL of each sample was added to a 96-well microplate. MeOH and pyrogallol (50 µg/mL) were employed as negative and positive controls, respectively. Then, 100 μL of either MeOH (blank wells) or DPPH solution (120 μg/mL, reaction wells) was added to the microplate. The reading was performed on a microplate reader (EL808IU-Biotek model, Biotek, Winooski, VT, USA), at 5 min intervals for a total of 45 min, at 515 nm. The percentage of radical scavenging activity (%RSA) was calculated using the following equation: % RSA = ((AC − AS)/AC) × 100, where AC is the absorbance of control and AS is the absorbance of samples taken at 35 min. The results were expressed in EC50 (effective concentration for 50% capture of the radicals) determined by non-linear regression using GraphPad Prism, version 6.0.

[2] = tested on: Activators, heat shock response; design: method as in PubChem Bioassay AID 743210; conditions: ref PubChem Bioassay AID 743210; cited from earlier work
Agonist, AP-1 = tested on: Agonist, AP-1; design: method as in PubChem Bioassay AID 1159528; conditions: ref PubChem Bioassay AID 1159528; cited from earlier work
[3] = tested on: Agonist, glucocorticoid receptor (GR); design: method as in PubChem Bioassay AID 720719; conditions: ref PubChem Bioassay AID 720719; cited from earlier work
Agonist, Histone H2A.x = tested on: Agonist, Histone H2A.x; design: method as in PubChem Bioassay AID 1224845; conditions: ref PubChem Bioassay AID 1224845; cited from earlier work
Agonist, p53 = tested on: Agonist, p53; design: method as in PubChem Bioassay AID 720552; conditions: ref PubChem Bioassay AID 720552; cited from earlier work
[4] = tested on: Antagonist, androgen receptor (AR); design: method as in PubChem Bioassay AID 743035; conditions: ref PubChem Bioassay AID 743035; cited from earlier work
[5] = tested on: Antagonist, androgen receptor (AR); design: method as in PubChem Bioassay AID 743063; conditions: ref PubChem Bioassay AID 743063; cited from earlier work
[6] = tested on: Antagonist, androgen receptor (AR); design: method as in PubChem Bioassay AID 1259247; conditions: ref PubChem Bioassay AID 1259247; cited from earlier work
[7] = tested on: Antagonist, peroxisome proliferator-activated receptor delta (PPARd); design: method as in PubChem Bioassay AID 743215; conditions: ref PubChem Bioassay AID 743215; cited from earlier work
[8] = tested on: Antagonist, thyroid receptor (TR); design: method as in PubChem Bioassay AID 743065; conditions: ref PubChem Bioassay AID 743065; cited from earlier work
Anticancer, Leukemia [9] = tested on: Anticancer, Leukemia; design: method as in PubChem Bioassay AID 250; conditions: ref PubChem Bioassay AID 250; cited from earlier work
Anticancer, Leukemia [10] = tested on: Anticancer, Leukemia; design: method as in PubChem Bioassay AID 258; conditions: ref PubChem Bioassay AID 258; cited from earlier work
Anticancer, Leukemia [11] = tested on: Anticancer, Leukemia; design: method as in PubChem Bioassay AID 328; conditions: ref PubChem Bioassay AID 328; cited from earlier work
Anticancer, Lung Tumor = tested on: Anticancer, Lung Tumor; design: method as in PubChem Bioassay AID 270; conditions: ref PubChem Bioassay AID 270; cited from earlier work
[12] = tested on: Anticancer, non-Hodgkin lymphoma; design: method as in PubChem Bioassay AID 651558; conditions: ref PubChem Bioassay AID 651558; cited from earlier work
[13] = tested on: Anticancer, non-Hodgkin lymphoma; design: method as in PubChem Bioassay AID 651568; conditions: ref PubChem Bioassay AID 651568; cited from earlier work
Anticancer, Sarcoma = tested on: Anticancer, Sarcoma; design: method as in PubChem Bioassay AID 292; conditions: ref PubChem Bioassay AID 292; cited from earlier work
Anti-Inflammatory model = tested on: Anti-Inflammatory model; design: method as in PubChem Bioassay AID 1309; conditions: ref PubChem Bioassay AID 1309; cited from earlier work
[14] = tested on: Cytotoxicity, Activate, aryl hydrocarbon receptor (AhR); design: method as in PubChem Bioassay AID 743086; conditions: ref PubChem Bioassay AID 743086; cited from earlier work
[15] = tested on: Cytotoxicity, Agonist, AP-1; design: method as in PubChem Bioassay AID 1159525; conditions: ref PubChem Bioassay AID 1159525; cited from earlier work
[16] = tested on: Cytotoxicity, Agonist, constitutive androstane receptor (CAR); design: method as in PubChem Bioassay AID 1224836; conditions: ref PubChem Bioassay AID 1224836; cited from earlier work
[17] = tested on: Cytotoxicity, Agonist, Histone H2A.x; design: method as in PubChem Bioassay AID 1224847; conditions: ref PubChem Bioassay AID 1224847; cited from earlier work
[18] = tested on: Cytotoxicity, Agonist, hypoxia; design: method as in PubChem Bioassay AID 1224844; conditions: ref PubChem Bioassay AID 1224844; cited from earlier work
[19] = tested on: Cytotoxicity, Agonist, RXR; design: method as in PubChem Bioassay AID 1159529; conditions: ref PubChem Bioassay AID 1159529; cited from earlier work
[20] = tested on: Cytotoxicity, Antagonist, androgen receptor (AR); design: method as in PubChem Bioassay AID 743033; conditions: ref PubChem Bioassay AID 743033; cited from earlier work

COc1cc([C@@H]2c3cc4c(cc3[C@H](O)[C@H]3COC(=O)[C@H]23)OCO4)cc(OC)c1OC [Podophyllotoxin, podophyllotoxin]
Antioxidant Activity (IC50-µg/mL) DPPH Radical Sequestration [1]: >200 µg/mL
Exper. Activity [2]: Inactive
Exper. Activity (Agonist, AP-1): Active
Exper. Activity [3]: Inactive
Exper. Activity (Agonist, Histone H2A.x): Inactive
Exper. Activity (Agonist, p53): Inactive
Exper. Activity [4]: Active
Exper. Activity [5]: Active
Exper. Activity [6]: Inactive
Exper. Activity [7]: Inactive
Exper. Activity [8]: Active
Exper. Activity (Anticancer, Leukemia [9]): Inactive
Exper. Activity (Anticancer, Leukemia [10]): Inactive
Exper. Activity (Anticancer, Leukemia [11]): Active
Exper. Activity (Anticancer, Lung Tumor): Inactive
Exper. Activity [12]: Active
Exper. Activity [13]: Inactive
Exper. Activity (Anticancer, Sarcoma): Active
Exper. Activity (Anti-Inflammatory model): Active
Exper. Activity [14]: Inactive
Exper. Activity [15]: Inactive
Exper. Activity [16]: Inactive
Exper. Activity [17]: Inactive
Exper. Activity [18]: Inactive
Exper. Activity [19]: Inactive
Exper. Activity [20]: Inactive
